As a reminder, the IC50 is the concentration at which inhibition is half-maximal.

SMILES strings stand for the structures. Bounds are passed on as bounds.

Holding throughout (assay type): biochemical
Assay [1] concerns the target T1, human HPK1 (MAP4K1) (Homo sapiens, UniProt Q92918).
T1 construct: human HPK1 (aa 1-346); purchased Invitrogen PV6355
T1 sequence (Q92918 1-346): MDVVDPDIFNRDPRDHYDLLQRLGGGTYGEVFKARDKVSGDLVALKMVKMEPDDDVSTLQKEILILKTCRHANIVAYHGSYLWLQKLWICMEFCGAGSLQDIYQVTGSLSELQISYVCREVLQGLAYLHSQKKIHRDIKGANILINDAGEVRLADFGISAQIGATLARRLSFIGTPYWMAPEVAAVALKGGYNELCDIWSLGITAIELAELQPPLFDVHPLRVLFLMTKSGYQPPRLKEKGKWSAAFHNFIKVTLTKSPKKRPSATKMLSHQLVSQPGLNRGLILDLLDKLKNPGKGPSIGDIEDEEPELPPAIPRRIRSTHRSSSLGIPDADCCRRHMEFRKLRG
In words: HPK1 inhibition assay (indirect ELISA). Particulars: GST-HPK1 0.6 nM, 12 μM ATP; read-out: IC50 Range HPK1. Here is the method:
Active HPK1 (MAP4K1) was purchased as an N-terminal GST fusion of human HPK1 (aa 1-346) from Invitrogen (cat #PV6355). HPK1 activity was measured using an indirect ELISA detection system. GST-HPK1 (0.6 nM) was incubated in the presence of 12 μM ATP (Sigma cat #A7699), 5 mM MOPS (pH 7.2), 2.5 mM β-glycerol-phosphate, 5 mM MgCl2, 0.4 mM EDTA, 1 mM EGTA, 0.05 mM DTT, in a 96 well microtitre plate pre-coated with 0.5 μg/well bovine myelin basic protein (MBP) (Millipore, cat #13-110). The reaction was allowed to proceed for 30 min, followed by 5 washes of the plate with Wash Buffer (phosphate buffered saline supplemented with 0.2% Tween 20), and incubation for 30 min with a 1:3000 dilution of anti-phospho-threonine rabbit polyclonal antibody (Cell Signaling cat #9381). The plate was washed 5 times with wash buffer, incubated for 30 min in the presence of goat anti-rabbit horse radish peroxidase conjugate (BioRad cat #1721019, 1:3000 concentration), washed an additional 5 times with wash buffer, and incubated in the presence of TMB substrate (Sigma cat #T0440). The colorimetric reaction was allowed to continue for 5 min, followed by addition of stop solution (0.5 N H2SO4), and quantified by detection at 450 nm with a monochromatic plate reader (Molecular Devices M5).
Compound inhibition was determined at either a fixed concentration (10 μM) or at a variable inhibitor concentration (typically 50 μM to 0.1 μM in a 10 point dose response titration). Compounds were pre-incubated in the presence of enzyme for 15 min prior to addition of ATP and the activity remaining quantified using the above described activity assay. The % inhibition of a compound was determined using the following formula; % inhibition=100×(1−(experimental value−background value)/(high activity control−background value)). The IC50 value was determined using a non-linear 4 point logistic curve fit (XLfit4, IDBS) with the formula; (A+(B/(1+((x/C)^D)))), where A=background value, B=range, C=inflection point, D=curve fit parameter.
On the technique in general: ELISA stands for enzyme-linked immunosorbent assay.

Assay [2] concerns the target T2, FLT3 (Homo sapiens, UniProt P36888).
T2 construct: purchased Invitrogen PV3182
T2 sequence (P36888 27-993): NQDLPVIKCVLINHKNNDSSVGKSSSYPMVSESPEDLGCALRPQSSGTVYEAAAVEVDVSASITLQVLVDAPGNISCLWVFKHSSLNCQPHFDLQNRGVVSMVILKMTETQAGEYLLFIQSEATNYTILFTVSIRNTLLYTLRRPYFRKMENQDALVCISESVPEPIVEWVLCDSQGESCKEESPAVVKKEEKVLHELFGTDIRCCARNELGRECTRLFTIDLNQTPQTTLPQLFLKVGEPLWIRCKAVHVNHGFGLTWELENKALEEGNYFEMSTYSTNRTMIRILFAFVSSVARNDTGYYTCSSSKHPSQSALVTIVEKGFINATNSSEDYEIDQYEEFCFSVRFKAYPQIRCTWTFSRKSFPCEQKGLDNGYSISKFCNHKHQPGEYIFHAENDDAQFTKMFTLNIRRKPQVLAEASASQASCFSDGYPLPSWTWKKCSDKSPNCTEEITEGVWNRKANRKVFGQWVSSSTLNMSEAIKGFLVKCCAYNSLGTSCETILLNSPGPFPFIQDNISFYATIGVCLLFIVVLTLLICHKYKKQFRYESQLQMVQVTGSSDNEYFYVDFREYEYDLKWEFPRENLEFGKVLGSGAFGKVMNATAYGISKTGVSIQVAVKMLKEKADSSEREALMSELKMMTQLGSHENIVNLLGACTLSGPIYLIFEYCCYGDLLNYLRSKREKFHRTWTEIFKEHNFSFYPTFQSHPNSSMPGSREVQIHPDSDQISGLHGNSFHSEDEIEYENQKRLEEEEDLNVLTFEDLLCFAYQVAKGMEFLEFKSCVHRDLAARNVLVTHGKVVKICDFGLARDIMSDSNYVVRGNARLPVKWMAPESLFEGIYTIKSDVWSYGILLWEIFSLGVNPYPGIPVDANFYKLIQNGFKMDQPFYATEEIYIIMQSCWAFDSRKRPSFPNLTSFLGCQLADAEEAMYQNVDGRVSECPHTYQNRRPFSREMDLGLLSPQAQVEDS
In words: FLT3 inhibition, FRET based Z'-LYTE Kinase Assay. Particulars: 1 nM FLT3, 940 μM ATP; read-out: IC50 Range Flt3. Here is the method:
(§1) FLT3 and LCK compound inhibition were determined using FRET based Z′-LYTE Kinase Assay Kit with Tyrosine 2 peptide as the substrate (Invitrogen cat #PV3191). […] The % inhibition values were determined according to the manufacturer's directions and IC50 values were obtained using a non-linear 4 point logistic curve fit (XLfit4, IDBS).

Assay [3] addresses T3, LCK (Homo sapiens, UniProt P06239).
T3 construct: purchased Invitrogen P3043
In words: LCK inhibition, FRET based Z'-LYTE Kinase Assay. Particulars: 25 nM LCK, 180 μM ATP; read-out: IC50 Range Lck. How it is done:
as §1

T3 sequence (P06239 whole entry, species assumed): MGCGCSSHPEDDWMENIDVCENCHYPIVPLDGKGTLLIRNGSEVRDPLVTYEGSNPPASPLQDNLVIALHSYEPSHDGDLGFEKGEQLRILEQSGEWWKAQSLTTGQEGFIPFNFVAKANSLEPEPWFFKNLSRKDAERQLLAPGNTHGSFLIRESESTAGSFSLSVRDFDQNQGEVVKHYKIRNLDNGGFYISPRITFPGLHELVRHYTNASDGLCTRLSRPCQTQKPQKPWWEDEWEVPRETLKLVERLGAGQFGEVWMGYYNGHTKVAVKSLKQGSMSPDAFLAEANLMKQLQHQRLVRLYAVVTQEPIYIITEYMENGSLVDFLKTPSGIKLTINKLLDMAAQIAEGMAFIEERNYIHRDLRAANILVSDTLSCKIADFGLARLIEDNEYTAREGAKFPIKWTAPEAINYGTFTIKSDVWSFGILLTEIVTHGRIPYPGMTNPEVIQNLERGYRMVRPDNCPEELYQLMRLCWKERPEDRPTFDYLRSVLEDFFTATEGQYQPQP

For `CN1CCN(c2ccc3nc(-c4c(N[C@@H]5CC[C@@H](O)C5)c5ccsc5[nH]c4=O)[nH]c3c2)CC1` (relative stereo) [Example A9, 4-(((1R*,3R*)-3-hydroxycyclopentyl)amino)-5-(6-(4-methylpiperazin-1-yl)-1H-benzo[d]imidazol-2-yl)thieno[2,3-b]pyridin-6(7H)-one], the IC50 in assay [1], in assay [2] and in assay [3] was ≤ 50 nM throughout.

For the molecule `CN1CCN(c2ccc3nc(-c4c(N[C@@H]5CC[C@H](O)C5)c5ccsc5[nH]c4=O)[nH]c3c2)CC1` (relative stereo) [Example A13, 4-(((1R*,3S*)-3-hydroxycyclopentyl)amino)-5-(6-(4-methylpiperazin-1-yl)-1H-benzo[d]imidazol-2-yl)thieno[2,3-b]pyridin-6(7H)-one], the IC50 in assay [1] was ≤ 50 nM; in assay [2] it was ≤ 50 nM; in assay [3], 50 to 500 nM.

As for `CN1CCN(c2ccc3nc(-c4c(N[C@@H]5CC[C@H](O)C5)c5sccc5[nH]c4=O)[nH]c3c2)CC1` (relative stereo) [Example A36, 7-(((1R*,3S*)-3-hydroxycyclopentyl)amino)-6-(6-(4-methylpiperazin-1-yl)-1H-benzo[d]imidazol-2-yl)thieno[3,2-b]pyridin-5(4H)-one], the IC50 in assay [1], in assay [2] and in assay [3] was ≤ 50 nM in each case.

As to `CN1CCN(c2ccc3nc(-c4c(N[C@H]5CCNC[C@H]5F)c5ccsc5[nH]c4=O)[nH]c3c2)CC1` (relative stereo) [Example A55, 4-(((3R*,4S*)-3-fluoropiperidin-4-yl)amino)-5-(6-(4-methylpiperazin-1-yl)-1H-benzo[d]imidazol-2-yl)thieno[2,3-b]pyridin-6(7H)-one], the IC50 in assay [1] is ≤ 50 nM; in assay [2], ≤ 50 nM; in assay [3], 50 to 500 nM.

`Cc1csc2[nH]c(=O)c(-c3nc4ccc(N5CCN(C)CC5)cc4[nH]3)c(N)c12` [Example A2, 4-amino-3-methyl-5-(6-(4-methylpiperazin-1-yl)-1H-benzo[d]imidazol-2-yl) thieno[2,3-b]pyridin-6(7H)-one]: the IC50 was ≤ 50 nM in assay [1], ≤ 50 nM in assay [2] and 50 to 500 nM in assay [3].

Regarding `Nc1c(-c2nc3ccc(N4CCOCC4)cc3[nH]2)c(=O)[nH]c2sccc12` [Example A4, 4-amino-5-(6-morpholino-1H-benzo[d]imidazol-2-yl)thieno[2,3-b]pyridin-6(7H)-one], the figures for the IC50 in assay [1], in assay [2] and in assay [3] were ≤ 50 nM, ≤ 50 nM and 50 to 500 nM, respectively.

For `CN1CCN(c2ccc3nc(-c4c(NC5CCOCC5)c5ccsc5[nH]c4=O)[nH]c3c2)CC1` [Example A7, 5-(6-(4-methylpiperazin-1-yl)-1H-benzo[d]imidazol-2-yl)-4-((tetrahydro-2H-pyran-4-yl)amino)thieno[2,3-b]pyridin-6(7H)-one], the IC50 was ≤ 50 nM in assay [1], ≤ 50 nM in assay [2] and 50 to 500 nM in assay [3].

For the molecule `CN1CCN(C(=O)c2ccc3[nH]c(-c4c(N)c5ccsc5[nH]c4=O)nc3c2)CC1` [Example A60, 4-amino-5-(5-(4-methylpiperazine-1-carbonyl)-1H-benzo[d]imidazol-2-yl)thieno[2,3-b]-pyridin-6(7H)-one], the IC50 in assay [1] and in assay [3] was 50 to 500 nM throughout.

Regarding `CN1CCN(c2ccc3nc(-c4c(N)c5ccsc5[nH]c4=O)[nH]c3c2F)CC1` [Example A69, 4-amino-5-(7-fluoro-6-(4-methylpiperazin-1-yl)-1H-benzo[d]imidazol-2-yl)thieno[2,3-b]pyridin-6(7H)-one], the IC50 in assay [2] was ≤ 50 nM; in assay [3], 50 to 500 nM.

`CN1CCN(c2ccc3nc(-c4c(N[C@H]5CCCC[C@H]5O)c5cscc5[nH]c4=O)[nH]c3c2)CC1` [Example A70, 4-(((1S,2R)-2-hydroxycyclohexyl)amino)-3-(6-(4-methylpiperazin-1-yl)-1H-benzo[d]imidazol-2-yl)thieno[3,4-b]pyridin-2(1H)-one]: the IC50 in assay [2] and in assay [3] was ≤ 50 nM each time.

(Values after patent US11059832B2, “HPK1 inhibitors and methods of using same” (University Health Network, priority 2015, dated 2021).)
